Columns and labels:
Test in all cases: relative viability (nuclei count vs DMSO), 5 days (fraction); higher = more cells survive
[1] = compound: COc1cc(-c2nn([C@H]3CC[C@H](N4CCN(C(C)=O)CC4)CC3)c3ncnc(N)c23)ccc1NC(=O)c1cc2ccccc2n1C + Nc1nc2[nH]cc(CCc3ccc(C(=O)N[C@@H](CCC(=O)O)C(=O)O)cc3)c2c(=O)[nH]1 [Pemetrexed] (partner 0.2 µM)
Outline: (§1)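 Relative viability is defined as nuclei in treated wells over nuclei in vehicle wells. Duplicate plates were run and medians reported. Lung cancer cell lines in 1536-well plates were dosed by pin tool one day after seeding, with one drug or with a fixed anchor-drug dose plus five library-drug doses (not always all listed) in √10 steps, and nuclei were counted after 5 days.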

[2] = compound: CO[C@@H]1[C@H](N(C)C(=O)c2ccccc2)C[C@H]2O[C@]1(C)n1c3ccccc3c3c4c(c5c6ccccc6n2c5c31)C(=O)NC4 [Midostaurin] + CC1(C)CCC(c2ccc(Cl)cc2)=C(CN2CCN(c3ccc(C(=O)NS(=O)(=O)c4ccc(N[C@H](CCN5CCOCC5)CSc5ccccc5)c(S(=O)(=O)C(F)(F)F)c4)cc3)CC2)C1 [Navitoclax] (partner 0.5 µM)
Outline: as §1

[3] = compound: CO[C@@H]1[C@H](N(C)C(=O)c2ccccc2)C[C@H]2O[C@]1(C)n1c3ccccc3c3c4c(c5c6ccccc6n2c5c31)C(=O)NC4 [Midostaurin] + Nc1nc2[nH]cc(CCc3ccc(C(=O)N[C@@H](CCC(=O)O)C(=O)O)cc3)c2c(=O)[nH]1 [Pemetrexed] (partner 0.2 µM)
Outline: as §1

[4] = compound: CO[C@@H]1[C@H](N(C)C(=O)c2ccccc2)C[C@H]2O[C@]1(C)n1c3ccccc3c3c4c(c5c6ccccc6n2c5c31)C(=O)NC4 [Midostaurin] + CC(C)C[C@H](NC(=O)[C@H](Cc1ccccc1)NC(=O)c1cnccn1)B(O)O [Bortezomib] (partner 0.002 µM)
Outline: as §1

[5] = compound: COc1cc(-c2nn([C@H]3CC[C@H](N4CCN(C(C)=O)CC4)CC3)c3ncnc(N)c23)ccc1NC(=O)c1cc2ccccc2n1C + N=C(N)NC(=N)NCCc1ccccc1 [Phenformin] (partner 250 µM)
Outline: as §1

Cell Line | relative viability ([1]; first compound 0.0128 µM) | relative viability ([1]; first compound 0.04048 µM) | relative viability ([1]; first compound 0.128 µM) | relative viability ([1]; first compound 1.28 µM) | relative viability ([2]; first compound 0.01 µM) | relative viability ([2]; first compound 0.03162 µM) | relative viability ([2]; first compound 0.1 µM) | relative viability ([2]; first compound 0.3162 µM) | relative viability ([3]; first compound 0.01 µM) | relative viability ([3]; first compound 0.03162 µM) | relative viability ([3]; first compound 0.1 µM) | relative viability ([3]; first compound 0.3162 µM) | relative viability ([4]; first compound 0.01 µM) | relative viability ([4]; first compound 0.03162 µM) | relative viability ([4]; first compound 0.1 µM) | relative viability ([4]; first compound 0.3162 µM) | relative viability ([5]; first compound 0.0128 µM) | relative viability ([5]; first compound 0.04048 µM) | relative viability ([5]; first compound 0.128 µM) | relative viability ([5]; first compound 1.28 µM)
NCI-H1355 | 1.18 | 1.06 | 1.01 | 0.967 | 0.966 | 0.924 | 1.01 | 0.847 | 1.04 | 1.07 | 1.14 | 1.09 | 1.13 | 1.16 | 1.31 | 1.26 | 0.476 | 0.401 | 0.459 | 0.41
NCI-H1437 | 0.351 | 0.339 | 0.287 | 0.303 | 1.13 | 1.03 | 1.07 | 1.12 | 0.311 | 0.3 | 0.332 | 0.323 | 0.556 | 0.499 | 0.478 | 0.545 | 0.429 | 0.303 | 0.331 | 0.287
NCI-H1650 | 0.332 | 0.384 | 0.348 | 0.468 | 1.29 | 1.03 | 1.08 | 0.846 | 0.315 | 0.415 | 0.322 | 0.3 | 0.214 | 0.227 | 0.206 | 0.213 | 0.41 | 0.57 | 0.435 | 0.479
NCI-H1651 | 0.57 | 0.617 | 0.57 | 0.438 | 1.01 | 1.07 | 0.897 | 0.898 | 0.626 | 0.53 | 0.618 | 0.675 | 0.955 | 1.01 | 1.02 | 1.03 | 0.352 | 0.329 | 0.3 | 0.31
NCI-H1666 | 0.881 | 0.803 | 0.84 | 0.847 | 0.872 | 0.855 | 0.84 | 0.846 | 0.876 | 0.812 | 0.74 | 0.722 | 0.852 | 0.894 | 0.882 | 0.888 | 0.568 | 0.567 | 0.577 | 0.537
NCI-H1734 | 0.432 | 0.391 | 0.406 | 0.432 | 0.829 | 0.813 | 0.798 | 0.697 | 0.421 | 0.405 | 0.446 | 0.456 | 0.868 | 0.886 | 0.915 | 0.786 | 0.331 | 0.297 | 0.391 | 0.379
NCI-H1755 | 0.438 | 0.43 | 0.577 | 0.57 | 0.966 | 0.927 | 0.828 | 0.627 | 0.447 | 0.469 | 0.42 | 0.431 | 0.914 | 0.912 | 0.887 | 0.755 | 0.647 | 0.547 | 0.592 | 0.614
NCI-H1792 | 0.883 | 0.913 | 0.797 | 0.729 | 0.613 | 0.591 | 0.601 | 0.647 | 0.761 | 0.835 | 0.756 | 0.424 | 0.943 | 0.949 | 0.911 | 0.949 | 0.263 | 0.288 | 0.369 | 0.309
NCI-H1915 | 0.536 | 0.452 | 0.488 | 0.5 | 0.8 | 0.827 | 0.794 | 0.799 | 0.46 | 0.472 | 0.506 | 0.477 | 0.936 | 1 | 0.968 | 0.993 | 0.387 | 0.396 | 0.375 | 0.334
NCI-H1975 | 0.318 | 0.29 | 0.297 | 0.255 | 1.13 | 1.07 | 1.04 | 0.818 | 0.298 | 0.31 | 0.271 | 0.279 | 0.325 | 0.513 | 0.446 | 0.322 | 0.393 | 0.392 | 0.385 | 0.254
NCI-H1993 | 0.684 | 0.543 | 0.598 | 0.599 | 0.964 | 0.901 | 0.972 | 0.992 | 0.627 | 0.542 | 0.597 | 0.51 | 1.03 | 1.15 | 1.08 | 1.11 | 0.539 | 0.509 | 0.486 | 0.488
NCI-H2009 | 1.03 | 1.09 | 1.21 | 1.19 | 1.16 | 1.14 | 1.03 | 1.15 | 0.956 | 0.878 | 0.921 | 1.06 | 0.882 | 0.981 | 0.942 | 0.809 | 0.517 | 0.433 | 0.511 | 0.515
NCI-H2023 | 0.258 | 0.211 | 0.229 | 0.242 | 1.07 | 0.898 | 0.92 | 0.903 | 0.194 | 0.244 | 0.227 | 0.19 | 0.974 | 0.961 | 0.963 | 0.567 | 0.404 | 0.426 | 0.355 | 0.323
NCI-H2085 | 0.915 | 0.86 | 0.81 | 0.539 | 1.16 | 1.06 | 1.02 | 0.757 | 0.971 | 0.784 | 0.928 | 0.632 | 0.968 | 0.963 | 1.08 | 0.946 | 0.756 | 0.655 | 0.781 | 0.654
NCI-H2087 | 0.601 |  | 0.697 | 0.707 | 1 | 0.98 | 0.875 | 0.897 | 0.701 | 0.665 | 0.66 | 0.658 | 0.827 | 0.717 | 0.542 | 0.841 | 0.505 |  | 0.529 | 0.462

— the supplement of paper PMC10307832
